Measured values as given in ChEMBL document CHEMBL1201862, “PubChem BioAssay data set” (2004).
Blank lines part the entries; values can stand above or below the compound they belong to. The source made the active and inactive calls.

Tests used:
Mu-type opioid receptor [1] = molecular target: T1, Mu-type opioid receptor (Homo sapiens, UniProt P35372); test: SAR Analysis of Antagonists of the MOR Receptor using an Image-Based Assay - Set 2. [Related pubchem assays (depositor defined):AID1777, AID1785, AID1786, AID1966, AID2133, AID2136, AID2284, AID2285, AID2420]; assay type: functional
[2] = molecular target: T2, Kappa-type opioid receptor (Homo sapiens, UniProt P41145); test: SAR analysis of Antagonists of the Kappa Opioid Receptor (KOR) using an Image-Based Assay - Set 2. [Related pubchem assays (depositor defined):AID1777, AID1785, AID1786, AID1966, AID2133, AID2136, AID2284, AID2285, AID2348]; assay type: functional
Mu-type opioid receptor [3] = molecular target: T1, Mu-type opioid receptor; test: SAR Analysis of Agonists of the MOR Receptor using an Image-Based Assay - Set 2. [Related pubchem assays (depositor defined):AID1777, AID1785, AID1786, AID1966, AID2133, AID2136, AID2284, AID2285, AID2352]; assay type: functional
[4] = molecular target: T2, Kappa-type opioid receptor; test: SAR analysis of small molecule agonists of the kappa opioid receptor via a luminescent beta-arrestin assay - Set 2. [Related pubchem assays (depositor defined):AID1777, AID1785, AID1786, AID1966, AID2133, AID2136, AID2284, AID449737]; assay type: functional
[5] = molecular target: T3, Delta-type opioid receptor (Homo sapiens, UniProt P41143); test: SAR Analysis of Agonists of the DOR Receptor using an Image-Based Assay - Set 2. [Related pubchem assays (depositor defined):AID1777, AID1785, AID1786, AID1966, AID2133, AID2136, AID2284, AID2285, AID2370]; assay type: functional
[6] = molecular target: T3, Delta-type opioid receptor; test: SAR Analysis of Antagonists of the DOR Receptor using an Image-Based Assay - Set 2. [Related pubchem assays (depositor defined):AID1777, AID1785, AID1786, AID1966, AID2133, AID2136, AID2284, AID2285, AID2357]; assay type: functional
[7] = molecular target: T2, Kappa-type opioid receptor; test: SAR analysis of Agonists of the Kappa Opioid Receptor (KOR) using an Image-Based Assay - Set 2. [Related pubchem assays (depositor defined):AID1777, AID1786, AID1966, AID2133, AID2136, AID2284, AID2285, AID2359]; assay type: functional
Aspartyl aminopeptidase = Aspartyl aminopeptidase (Plasmodium falciparum 3D7, UniProt Q8I2J3); test: Counterscreen for inhibitors of M1 and M17 aminopeptidases: QFRET-based biochemical high throughput dose response assay for inhibitors of the Plasmodium falciparum M18 Aspartyl Aminopeptidase (PFM18AAP). [Related PubChem assays: 1619 (Screening assay (M17LAP inhibitors).), 1445 (Screening assay (M1AAP inhibitors).)]
Aminopeptidase N = molecular target: T4, Aminopeptidase N (Plasmodium falciparum FcB1/Columbia, UniProt O96935); test: malaria alanyl aminopeptidase activity blockers – biochemical, fluorogenic H-Leu-NHMec substrate, 1536-well (AID 1445); set-up: species or system Plasmodium falciparum 3D7, 3D7
T4 sequence (O96935 whole entry): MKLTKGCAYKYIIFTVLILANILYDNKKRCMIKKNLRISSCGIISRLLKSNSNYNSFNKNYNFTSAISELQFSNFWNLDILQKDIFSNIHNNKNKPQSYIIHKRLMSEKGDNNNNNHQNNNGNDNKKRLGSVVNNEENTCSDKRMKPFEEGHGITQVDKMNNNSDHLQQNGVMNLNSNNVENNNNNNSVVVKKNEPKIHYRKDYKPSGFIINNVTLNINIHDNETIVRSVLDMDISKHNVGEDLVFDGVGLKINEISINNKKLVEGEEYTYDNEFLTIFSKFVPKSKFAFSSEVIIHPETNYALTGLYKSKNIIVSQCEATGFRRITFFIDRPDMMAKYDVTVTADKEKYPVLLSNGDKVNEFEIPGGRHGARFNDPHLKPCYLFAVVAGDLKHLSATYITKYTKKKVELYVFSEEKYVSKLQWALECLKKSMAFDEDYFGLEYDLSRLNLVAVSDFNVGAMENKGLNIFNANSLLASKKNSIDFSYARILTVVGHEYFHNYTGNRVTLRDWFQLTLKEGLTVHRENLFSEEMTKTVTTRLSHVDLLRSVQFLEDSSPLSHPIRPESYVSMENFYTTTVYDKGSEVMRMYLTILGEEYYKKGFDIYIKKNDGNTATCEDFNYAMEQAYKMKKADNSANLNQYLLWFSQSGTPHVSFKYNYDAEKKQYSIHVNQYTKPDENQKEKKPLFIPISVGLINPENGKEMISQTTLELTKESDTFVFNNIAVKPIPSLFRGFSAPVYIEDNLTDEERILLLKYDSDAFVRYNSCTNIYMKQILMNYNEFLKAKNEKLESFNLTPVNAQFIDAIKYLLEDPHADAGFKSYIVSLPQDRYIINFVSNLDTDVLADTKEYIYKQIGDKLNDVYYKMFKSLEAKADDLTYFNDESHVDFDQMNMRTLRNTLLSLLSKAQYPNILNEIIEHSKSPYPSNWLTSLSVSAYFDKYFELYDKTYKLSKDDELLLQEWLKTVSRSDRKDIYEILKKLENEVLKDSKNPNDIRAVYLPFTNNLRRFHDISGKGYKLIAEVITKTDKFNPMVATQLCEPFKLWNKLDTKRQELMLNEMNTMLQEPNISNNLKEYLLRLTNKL

[8] = molecular target: T5, RNA-binding protein pos-1 (Caenorhabditis elegans, UniProt G5EF15); test: disruptors of C. elegans POS-1 RNA interaction – biochemical, fluorescence polarization, dose response (AID 1964);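 also: purified POS-1 fused to maltose binding protein made in E. coli; potency of compounds blocking POS-1 binding to fluorescent RNA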
T5 sequence (G5EF15 whole entry): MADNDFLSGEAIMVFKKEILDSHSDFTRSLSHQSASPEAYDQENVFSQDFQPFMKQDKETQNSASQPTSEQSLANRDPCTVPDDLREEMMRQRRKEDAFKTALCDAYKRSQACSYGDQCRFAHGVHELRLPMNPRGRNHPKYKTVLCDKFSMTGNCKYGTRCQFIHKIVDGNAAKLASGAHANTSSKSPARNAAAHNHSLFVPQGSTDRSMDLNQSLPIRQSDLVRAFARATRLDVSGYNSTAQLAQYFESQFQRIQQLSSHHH

[9] = molecular target: T6, Zinc finger protein mex-5 (Caenorhabditis elegans, UniProt Q9XUB2); test: potency of MEX-5 RNA-binding blockers – biochemical, C. elegans, fluorescence polarization, dose response (AID 1960)
T6 sequence (Q9XUB2 whole entry): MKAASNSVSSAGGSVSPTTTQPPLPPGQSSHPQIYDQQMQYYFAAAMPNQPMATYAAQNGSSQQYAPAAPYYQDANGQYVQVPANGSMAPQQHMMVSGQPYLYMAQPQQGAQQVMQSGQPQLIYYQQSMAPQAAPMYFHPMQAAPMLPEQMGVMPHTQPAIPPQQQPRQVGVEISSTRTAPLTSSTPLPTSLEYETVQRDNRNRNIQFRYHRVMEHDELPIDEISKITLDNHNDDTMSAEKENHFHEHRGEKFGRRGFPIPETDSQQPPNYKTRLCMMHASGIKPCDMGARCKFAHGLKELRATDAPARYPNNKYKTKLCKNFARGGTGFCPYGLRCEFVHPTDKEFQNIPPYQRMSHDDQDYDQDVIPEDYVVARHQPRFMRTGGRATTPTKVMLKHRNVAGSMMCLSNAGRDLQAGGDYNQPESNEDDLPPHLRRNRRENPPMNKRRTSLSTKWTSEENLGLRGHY

Procathepsin L = Procathepsin L (Homo sapiens, UniProt P07711); test: CTSL1 protease inhibition – biochemical, QFRET, 1536-well, counter-screen for M1/M17 aminopeptidase inhibitor project, dose response (AID 2214)
[10] = molecular target: Intestinal-type alkaline phosphatase (Mus musculus, UniProt P24822); test: PubChem AID 488785; assay type: functional
[11] = molecular target: T7, Alkaline phosphatase, tissue-nonspecific isozyme (Homo sapiens, UniProt P05186); test: TNAP enzyme inhibition by screening hits, dose response, selectivity assay for mouse IAP inhibitor project, biochemical, human TNAP, uHTS hits (AID 488906); assay type: functional
T7 sequence (P05186 whole entry): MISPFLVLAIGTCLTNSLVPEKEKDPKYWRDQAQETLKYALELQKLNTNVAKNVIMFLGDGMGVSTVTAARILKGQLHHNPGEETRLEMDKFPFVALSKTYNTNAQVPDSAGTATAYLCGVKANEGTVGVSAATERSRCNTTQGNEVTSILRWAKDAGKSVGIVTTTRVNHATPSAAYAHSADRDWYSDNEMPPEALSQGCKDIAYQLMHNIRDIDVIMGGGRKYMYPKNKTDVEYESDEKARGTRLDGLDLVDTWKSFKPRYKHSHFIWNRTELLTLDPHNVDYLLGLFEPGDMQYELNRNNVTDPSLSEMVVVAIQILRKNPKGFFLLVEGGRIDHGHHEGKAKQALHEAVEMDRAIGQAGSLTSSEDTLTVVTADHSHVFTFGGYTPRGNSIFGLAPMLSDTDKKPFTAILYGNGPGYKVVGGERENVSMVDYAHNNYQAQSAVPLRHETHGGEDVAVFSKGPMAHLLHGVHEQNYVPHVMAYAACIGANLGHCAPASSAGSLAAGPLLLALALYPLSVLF

[12] = molecular target: Intestinal-type alkaline phosphatase (Homo sapiens, UniProt P09923); test: inhibition of human intestinal alkaline phosphatase – biochemical, dose response (AID 488876); assay type: functional
[13] = molecular target: T8, Polyadenylate-binding protein 1 (Homo sapiens, UniProt P11940); test: MLLE binding blockers, Cy5 peptide tracer – biochemical, fluorescence polarization, Cy5-PAM2 peptide, secondary, miRNA deadenylation inhibitor project, dose response (AID 602260); assay type: functional; conditions: read-out: IC50_Mean
[14] = molecular target: T8, Polyadenylate-binding protein 1; test: MLLE domain peptide-binding blockers, IC50 – biochemical, fluorescence polarization, FITC-PAM2 peptide, dose response (AID 602259); assay type: functional; conditions: read-out: IC50_Mean
Cytochrome P450 2C19 = Cytochrome P450 2C19 (Homo sapiens, UniProt P33261); test: Cytochrome panel assay with activity outcomes. Panel member name: p450-cyp2c19 Compounds with AC50 equal or less than 10 uM are considered active; assay type: functional; conditions: read-out: AC50
Cytochrome P450 3A4 = Cytochrome P450 3A4 (Homo sapiens, UniProt P08684);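 also: CYP3A4 tested as one member of a cytochrome P450 panel screen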
Cytochrome P450 3A4, sequence (P08684 whole entry): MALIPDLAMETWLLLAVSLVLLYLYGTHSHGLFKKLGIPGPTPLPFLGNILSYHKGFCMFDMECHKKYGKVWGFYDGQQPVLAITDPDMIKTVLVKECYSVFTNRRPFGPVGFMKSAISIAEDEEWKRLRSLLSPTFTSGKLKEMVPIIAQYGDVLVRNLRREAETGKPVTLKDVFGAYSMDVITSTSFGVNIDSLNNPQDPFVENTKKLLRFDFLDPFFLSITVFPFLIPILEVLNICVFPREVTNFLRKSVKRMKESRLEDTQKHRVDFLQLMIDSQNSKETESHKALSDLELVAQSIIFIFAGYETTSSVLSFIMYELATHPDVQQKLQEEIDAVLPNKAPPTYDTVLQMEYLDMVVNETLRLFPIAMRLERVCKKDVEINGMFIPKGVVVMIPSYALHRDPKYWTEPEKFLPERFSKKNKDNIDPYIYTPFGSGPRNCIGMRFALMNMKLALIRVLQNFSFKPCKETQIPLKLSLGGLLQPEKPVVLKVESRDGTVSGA

T2 sequence (P41145 whole entry): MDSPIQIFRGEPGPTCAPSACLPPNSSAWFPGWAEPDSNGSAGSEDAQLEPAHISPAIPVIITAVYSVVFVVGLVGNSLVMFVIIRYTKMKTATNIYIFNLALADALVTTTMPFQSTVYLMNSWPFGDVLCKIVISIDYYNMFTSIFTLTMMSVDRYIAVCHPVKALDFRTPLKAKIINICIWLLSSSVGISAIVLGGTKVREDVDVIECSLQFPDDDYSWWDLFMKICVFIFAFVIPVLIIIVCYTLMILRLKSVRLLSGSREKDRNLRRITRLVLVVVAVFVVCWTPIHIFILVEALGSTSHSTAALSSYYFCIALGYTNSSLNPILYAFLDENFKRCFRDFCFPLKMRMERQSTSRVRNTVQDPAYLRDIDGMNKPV
T3 sequence (P41143 whole entry): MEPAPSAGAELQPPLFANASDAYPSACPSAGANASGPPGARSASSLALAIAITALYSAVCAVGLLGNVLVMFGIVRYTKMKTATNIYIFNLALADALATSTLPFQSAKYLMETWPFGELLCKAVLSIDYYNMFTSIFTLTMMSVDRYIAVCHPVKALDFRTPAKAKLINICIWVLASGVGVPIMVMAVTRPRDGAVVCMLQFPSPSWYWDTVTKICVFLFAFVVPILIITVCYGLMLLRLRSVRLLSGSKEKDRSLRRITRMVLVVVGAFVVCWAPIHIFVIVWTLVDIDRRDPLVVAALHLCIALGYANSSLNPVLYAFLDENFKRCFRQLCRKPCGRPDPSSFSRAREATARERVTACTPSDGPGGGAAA
T1 sequence (P35372 whole entry): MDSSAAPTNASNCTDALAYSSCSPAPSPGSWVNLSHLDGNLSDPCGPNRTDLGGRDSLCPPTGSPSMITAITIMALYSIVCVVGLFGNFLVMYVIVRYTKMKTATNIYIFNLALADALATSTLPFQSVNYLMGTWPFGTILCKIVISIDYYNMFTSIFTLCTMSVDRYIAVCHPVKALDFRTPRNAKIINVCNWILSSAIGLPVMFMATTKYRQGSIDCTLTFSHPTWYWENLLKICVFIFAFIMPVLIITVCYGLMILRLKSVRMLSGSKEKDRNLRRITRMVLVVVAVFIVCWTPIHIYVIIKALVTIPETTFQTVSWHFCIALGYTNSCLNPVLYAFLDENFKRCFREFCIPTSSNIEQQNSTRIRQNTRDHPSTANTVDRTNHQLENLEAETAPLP
T8 sequence (P11940 whole entry, the tested form may be a part): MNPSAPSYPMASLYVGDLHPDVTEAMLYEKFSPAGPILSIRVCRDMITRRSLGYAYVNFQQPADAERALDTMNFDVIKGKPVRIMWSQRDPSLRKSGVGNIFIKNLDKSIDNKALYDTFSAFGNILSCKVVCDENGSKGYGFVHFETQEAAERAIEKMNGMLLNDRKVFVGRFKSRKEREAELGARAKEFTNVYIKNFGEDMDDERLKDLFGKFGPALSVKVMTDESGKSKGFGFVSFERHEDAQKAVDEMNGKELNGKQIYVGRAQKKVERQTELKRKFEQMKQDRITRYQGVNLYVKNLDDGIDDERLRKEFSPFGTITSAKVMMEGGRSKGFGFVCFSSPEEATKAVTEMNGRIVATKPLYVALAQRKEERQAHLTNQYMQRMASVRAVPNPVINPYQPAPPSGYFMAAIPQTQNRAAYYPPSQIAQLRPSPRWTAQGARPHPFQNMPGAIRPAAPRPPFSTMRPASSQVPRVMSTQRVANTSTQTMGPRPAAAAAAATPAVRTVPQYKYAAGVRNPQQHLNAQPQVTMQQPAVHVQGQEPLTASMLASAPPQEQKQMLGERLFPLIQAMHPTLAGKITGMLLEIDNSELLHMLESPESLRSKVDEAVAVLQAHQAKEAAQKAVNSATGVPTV
Intestinal-type alkaline phosphatase (Mus musculus, UniProt P24822), sequence (P24822 whole entry): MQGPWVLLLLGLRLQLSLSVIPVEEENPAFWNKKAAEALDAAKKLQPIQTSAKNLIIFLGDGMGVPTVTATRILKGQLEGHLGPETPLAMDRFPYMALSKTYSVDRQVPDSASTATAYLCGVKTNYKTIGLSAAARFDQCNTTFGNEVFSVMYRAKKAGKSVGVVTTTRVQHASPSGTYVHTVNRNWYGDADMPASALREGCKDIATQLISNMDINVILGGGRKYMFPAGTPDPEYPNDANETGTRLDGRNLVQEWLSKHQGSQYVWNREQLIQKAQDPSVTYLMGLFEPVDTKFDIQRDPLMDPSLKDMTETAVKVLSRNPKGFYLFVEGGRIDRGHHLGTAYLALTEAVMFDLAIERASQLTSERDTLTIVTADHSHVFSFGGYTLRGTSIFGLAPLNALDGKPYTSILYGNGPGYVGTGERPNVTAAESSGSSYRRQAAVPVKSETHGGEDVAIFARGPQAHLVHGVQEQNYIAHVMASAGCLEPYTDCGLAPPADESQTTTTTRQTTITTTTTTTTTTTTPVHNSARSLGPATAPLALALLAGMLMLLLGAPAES
Intestinal-type alkaline phosphatase (Homo sapiens, UniProt P09923), sequence (P09923 whole entry): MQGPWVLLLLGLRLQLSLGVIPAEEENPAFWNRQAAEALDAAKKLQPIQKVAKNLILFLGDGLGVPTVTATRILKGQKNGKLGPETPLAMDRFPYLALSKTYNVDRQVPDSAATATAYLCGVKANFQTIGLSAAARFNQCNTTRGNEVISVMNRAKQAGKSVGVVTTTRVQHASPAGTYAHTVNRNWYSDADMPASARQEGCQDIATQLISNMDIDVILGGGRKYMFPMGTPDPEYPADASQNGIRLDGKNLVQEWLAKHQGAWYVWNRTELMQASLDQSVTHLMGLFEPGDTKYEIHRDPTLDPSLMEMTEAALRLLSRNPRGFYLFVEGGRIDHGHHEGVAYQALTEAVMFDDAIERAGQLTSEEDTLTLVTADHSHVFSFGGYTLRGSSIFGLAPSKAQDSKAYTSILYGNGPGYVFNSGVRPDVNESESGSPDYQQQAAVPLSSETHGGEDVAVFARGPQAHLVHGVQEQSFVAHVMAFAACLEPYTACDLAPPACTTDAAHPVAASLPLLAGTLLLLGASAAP
Procathepsin L, sequence (P07711 whole entry): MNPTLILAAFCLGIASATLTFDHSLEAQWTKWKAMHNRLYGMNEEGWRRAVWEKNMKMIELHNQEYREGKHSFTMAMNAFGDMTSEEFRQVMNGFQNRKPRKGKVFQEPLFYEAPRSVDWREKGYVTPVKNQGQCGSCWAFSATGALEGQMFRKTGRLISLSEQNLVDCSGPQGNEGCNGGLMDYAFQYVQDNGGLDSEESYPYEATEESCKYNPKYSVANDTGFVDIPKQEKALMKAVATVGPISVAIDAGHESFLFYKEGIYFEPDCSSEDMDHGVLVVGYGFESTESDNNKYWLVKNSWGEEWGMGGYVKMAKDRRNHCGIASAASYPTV
Aspartyl aminopeptidase, sequence (Q8I2J3 whole entry): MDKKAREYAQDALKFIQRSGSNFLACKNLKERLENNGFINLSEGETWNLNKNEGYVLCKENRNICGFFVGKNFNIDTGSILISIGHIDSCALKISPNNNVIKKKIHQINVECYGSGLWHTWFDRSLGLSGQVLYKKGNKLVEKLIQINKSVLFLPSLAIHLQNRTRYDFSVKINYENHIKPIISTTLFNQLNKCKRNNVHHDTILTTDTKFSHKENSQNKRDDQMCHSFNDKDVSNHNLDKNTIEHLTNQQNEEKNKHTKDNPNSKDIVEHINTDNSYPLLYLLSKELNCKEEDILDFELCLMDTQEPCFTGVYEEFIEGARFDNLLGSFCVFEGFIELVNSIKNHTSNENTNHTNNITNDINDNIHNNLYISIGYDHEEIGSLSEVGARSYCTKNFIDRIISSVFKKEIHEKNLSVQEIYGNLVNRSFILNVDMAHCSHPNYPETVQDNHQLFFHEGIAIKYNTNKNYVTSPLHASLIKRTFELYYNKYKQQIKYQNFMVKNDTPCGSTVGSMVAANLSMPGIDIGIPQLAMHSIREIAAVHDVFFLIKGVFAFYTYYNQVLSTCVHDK
Cytochrome P450 2C19, sequence (P33261 whole entry): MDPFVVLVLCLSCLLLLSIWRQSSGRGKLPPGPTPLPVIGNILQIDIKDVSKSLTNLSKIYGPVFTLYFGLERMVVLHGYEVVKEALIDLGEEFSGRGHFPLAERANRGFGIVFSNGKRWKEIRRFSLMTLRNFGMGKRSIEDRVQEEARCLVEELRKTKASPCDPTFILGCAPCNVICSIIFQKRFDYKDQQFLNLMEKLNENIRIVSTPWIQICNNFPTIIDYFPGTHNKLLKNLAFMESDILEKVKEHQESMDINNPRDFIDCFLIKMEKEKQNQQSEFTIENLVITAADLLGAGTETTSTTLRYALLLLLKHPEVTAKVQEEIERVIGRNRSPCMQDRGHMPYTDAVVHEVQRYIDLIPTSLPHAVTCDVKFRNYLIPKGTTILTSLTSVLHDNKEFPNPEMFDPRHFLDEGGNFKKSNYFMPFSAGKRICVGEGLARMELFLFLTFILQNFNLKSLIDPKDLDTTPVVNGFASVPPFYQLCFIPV

IC50 (Mu-type opioid receptor [1]): > 32 µM (inactive)
IC50 [2]: > 32 µM (inactive)
EC50 (Mu-type opioid receptor [3]): > 32 µM (inactive)
EC50 [4]: 17.9 µM (inactive)
EC50 [5]: > 32 µM (inactive)
IC50 [6]: > 32 µM (inactive)
EC50 [7]: > 32 µM (inactive)
Compound: c1ccc(CSc2nnc(-c3ccccn3)n2Cc2ccco2)cc1

IC50 (Aspartyl aminopeptidase): 25 µM (not active)
IC50 (Aminopeptidase N): 9.43 µM (active)
EC50 [8]: 7.47 µM (active)
EC50 [9]: 5.31 µM (active)
IC50 (Procathepsin L): > 59.6 µM (not active)
IC50 [10]: 53.5 µM (active)
IC50 [11]: > 100 µM (inactive)
IC50 [12]: > 100 µM (inactive)
IC50 [13]: > 66 µM (inactive)
IC50 [14]: > 66 µM (inactive)
Compound: CCN1C(=O)/C(=C2\SC(=S)N(NC(=O)c3ccccc3O)C2=O)c2ccccc21

AC50 (Cytochrome P450 2C19): 0.794 µM (inconclusive)
AC50 (Cytochrome P450 3A4): inconclusive
Compound: O=C(OC1CCN(c2ccc([N+](=O)[O-])cc2)CC1)c1ccccc1
